This is an account of results in US20080199606A1, “Composition for the Impregnation of Fibers, Fabrics and Nettings Imparting a Protective Activity Against Pests” (BASF Aktiengesellschaft, priority 2005, published 2008).

The subject of the assay is mosquitoes. The assay can be described thus: WHO cone test of treated, washed polyester nettings (knockdown, 24-hour mortality). As to conditions: polyester nettings treated with insecticide composition comprising a binder of example A and the N-arylhydrazine derivative; after Montpellier washing; 3 min cone exposure. It counts as in vivo. The method, then:
The long-lasting insecticidal treatment was performed with aqueous dispersions according to examples A1-A17 on commercially available white polyester netting material (fiber titer 75 denier, 156 mesh, weight 28-32 g/m^2) without prior washing. The aqueous treatment baths were prepared by mixing the aqueous dispersions with emulsions of N-ethyl-2,2-dimethylpropionamide-2-(2,6-dichloro-α,α,α-trifluoro-p-tolyl)-hydrazone and N-ethyl-2,2-dichloro-1-methylcyclo-propanecarboxamide-2-(2,6-dichloro-α,α,α-tri-fluoro-p-tolyl)hydrazone, respectively, setting pH with buffer solutions and adding a fixative (if needed). The concentrations of the treatment baths were adjusted according to the liquor uptake possible (LU between 60 and 100%). The treatment baths were applied by using a padder-stenter equipment on a laboratory scale (Mathis AG, Switzerland). The netting material is fully immersed into the treatment bath and excess liquor is removed by passing it through cylinders which move in counter-direction. By choosing a defined distance between these cylinders (and thus a defined pressure) the liquor uptake can be controlled. The liquor uptake is measured by weighing an impregnated piece of netting and subtracting the weight of the dry, untreated netting and is given as % weight of liquor on weight of netting. […]

Molecules are shown by their SMILES.

`CCN/C(=N\Nc1c(Cl)cc(C(F)(F)F)cc1Cl)C(C)(C)C` [Ia-I, N-ethyl-2,2-dimethylpropionamide-2-(2,6-dichloro-α,α,α-trifluoro-p-tolyl)-hydrazone]: the “activity (knockdown, mortality) after washing of the nettings” value was “show an activity”.

As to `CCN/C(=N\Nc1c(Cl)cc(C(F)(F)F)cc1Cl)C1(C)CC1(Cl)Cl` (stereo not drawn) [Ia-II, N-Ethyl-2,2-dichloro-1-methylcyclo-propanecarboxamide-2-(2,6-dichloro-α,α,α-tri-fluoro-p-tolyl)hydrazone], the “activity (knockdown, mortality) after washing of the nettings” value is “show an activity”.
